Source: patent US10294234B2, “HIV inhibitor compounds” (priority 2017, dated 2019)

What was measured:
[1] = in vivo
Method: Pharmacokinetic Profiling Dog PK
Each dosing group consisted of three non-naïve male beagle dogs. At dosing, the animals weighed between 9 to 12 kg. The animals were fasted overnight prior to dose administration and up to four hours after dosing. The test article was administered by intravenous infusion over 30-minutes. The rate of infusion was adjusted according to the body weight of each animal to deliver a dose of 0.5 or 1.0 mg/kg. For the oral dosing group, the test article was administered by oral gavage at a dose volume of 2 mL/kg.
Serial venous blood samples (approximately 1.0 mL each) were collected at predose and 0.25, 0.48, 0.58, 0.75, 1.0, 1.5, 2, 4, 8, 12 and 24 hours post dose from each animal for the IV dosing group; blood samples were collected at predose, 0.25, 0.50, 1, 2 4, 6, 8,12 and 24 hours post dose for the oral dosing group. The blood samples were collected into Vacutainer™ tubes containing EDTA-K2 as the anti-coagulant and were immediately placed on wet ice pending centrifugation for plasma. An LC/MS/MS method was used to measure the concentration of test compound in plasma. Non-compartmental pharmacokinetic analysis was performed on the plasma concentration-time data. VSS=apparent volume of distribution, t1/2=half life, F=oral bioavailability.

[2] = target: recombinant HIV protease (Human immunodeficiency virus type 1 group M subtype B, UniProt P04585); assay: biochemical
Method: Inhibitor potency was measured using an enzymatic assay with a fluorogenic readout. […] After a 20-minute pre-incubation, the enzymatic reaction was initiated by the addition of the fluorogenic substrate (2-aminobenzoyl)Thr-Ile-Nle-(p-nitro)Phe-Gln-Arg (Bachem) to a final concentration of 40 μM. The total volume of the assay solution was 100 µL. The reaction was measured over 20 minutes on a Tecan Infinite M1000 plate reader using an excitation wavelength of 320 nm and a detection wavelength of 420 nm. The slopes of the progress curves were the measure of reaction rates.

[3] = 1 uM compound, NADPH
Method in brief: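 Depletion measured by LC/MS/MS at 2, 12, 25, 45 and 65 minutes after 1 uM compound was added to liver microsomes (0.5 mg/mL; dog, rat, human) with NADPH-regenerating cofactor, in duplicate. In vitro t1/2 converted to Clint.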

[4] = male beagle dogs, IV infusion over 30 minutes, 0.5 or 1.0 mg/kg

SMILES: COC(=O)N[C@H](C(=O)N[C@@H](Cc1ccc(C#Cc2ccc(N3CC4CCC(C3)N4C3COC3)nc2)cc1)[C@@H](O)CN(Cc1c(F)cc(-c2ccn(C(F)F)n2)cc1F)NC(=O)[C@@H](NC(=O)OC)C(C)(C)C(F)(F)F)C(C)(C)C(F)(F)F [Example 58, Methyl ((5S,8S,9S,14S)-11-(4-(1-(difluoromethyl)-1H-pyrazol-3-yl)-2,6-difluorobenzyl)-16,16,16-trifluoro-9-hydroxy-15,15-dimethyl-8-(4-((6-(8-(oxetan-3-yl)-3,8-diazabicyclo[3.2.1]octan-3-yl)pyridin-3-yl)ethynyl)benzyl)-3,6,13-trioxo-5-(1,1,1-trifluoro-2-methylpropan-2-yl)-2-oxa-4,7,11,12-tetraazahexadecan-14-yl)carbamate]
- DOG IV CL [1, 4]: 7.83 mL/min/kg
- DOG IV T1/2 [1, 4]: 13.8 h
- DOG PO F ([1]; male beagle dogs, oral gavage, PO dose 2 mg/kg): 18%
- Vd ([1]; male, beagle, dog, plasma, iv): 6.34 L/kg
- Ki [2]: 0.06 nM
- Human Pred Cl. ([3]; human liver microsomes 0.5 mg/mL): <0.11 L/H/kg
- Rat. Pred. Cl. ([3]; rat liver microsomes 0.5 mg/mL): 0.24 L/H/kg
